# From ChEMBL document CHEMBL1201862, “PubChem BioAssay data set” (2004)
#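 1) Cells in 96-well plates. 2) Compound, 48 h, 5 concentrations. 3) Linear interpolation between surrounding doses. 4) Unreached endpoint = highest concentration. GI50 is the concentration that inhibits growth by half.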 Calls of active or inactive are those of the source. No stated cut-off is given here; in the data, active = GI50 up to about 1.1 µM and inactive = higher.
# Experiments:
# Experiment in all cases: DTP human tumour cell line panel, 48 h
# A498 = test system: A498
# A549 = test system: A549
# ACHN = test system: ACHN
# BT-549 = test system: BT-549
# COLO 205 = test system: COLO 205
# HCT-116 = test system: HCT-116
# HOP-62 = test system: HOP-62
# IGROV-1 = test system: IGROV-1
# K562 = test system: K562
# M14 = test system: M14
# MDA-MB-231 = test system: MDA-MB-231
# NCI-H226 = test system: NCI-H226
# OVCAR-3 = test system: OVCAR-3
# PC-3 = test system: PC-3
# SNB-75 = test system: SNB-75
# SW-620 = test system: SW-620
# U-251 = test system: U-251
# UACC-257 = test system: UACC-257
# UO-31 = test system: UO-31
# SK-OV-3 = test system: SK-OV-3
SMILES,GI50 (A498),GI50 (A549),GI50 (ACHN),GI50 (BT-549),GI50 (COLO 205),GI50 (HCT-116),GI50 (HOP-62),GI50 (IGROV-1),GI50 (K562),GI50 (M14),GI50 (MDA-MB-231),GI50 (NCI-H226),GI50 (OVCAR-3),GI50 (PC-3),GI50 (SNB-75),GI50 (SW-620),GI50 (U-251),GI50 (UACC-257),GI50 (UO-31),GI50 (SK-OV-3)
CCOC(=O)C1C(=O)CC(C)(O)C(C(=O)OCC)C1c1ccc(OC)cc1 (stereo not drawn),> 100 µM (inactive),> 100 µM (inactive),> 100 µM (inactive),> 100 µM (inactive),> 100 µM (inactive),> 100 µM (inactive),> 100 µM (inactive),> 100 µM (inactive),> 100 µM (inactive),> 100 µM (inactive),> 100 µM (inactive),1.6 µM (inactive),> 100 µM (inactive),> 100 µM (inactive),> 100 µM (inactive),> 100 µM (inactive),> 100 µM (inactive),> 100 µM (inactive),> 100 µM (inactive),
O=CN1CCN(C(=O)c2ccc(Cl)cc2)C1=S,14.8 µM (inactive),14.9 µM (inactive),17.3 µM (inactive),25.4 µM (inactive),20.7 µM (inactive),18 µM (inactive),19.1 µM (inactive),14.2 µM (inactive),12.9 µM (inactive),14.6 µM (inactive),16.4 µM (inactive),43.5 µM (inactive),15.4 µM (inactive),15.7 µM (inactive),20 µM (inactive),18 µM (inactive),14.4 µM (inactive),17.5 µM (inactive),,25.1 µM (inactive)
CCC(=O)C(c1ccccc1)c1ccccn1 (stereo not drawn),> 100 µM (inactive),> 100 µM (inactive),> 100 µM (inactive),> 100 µM (inactive),> 100 µM (inactive),> 100 µM (inactive),> 100 µM (inactive),> 100 µM (inactive),,> 100 µM (inactive),> 100 µM (inactive),> 100 µM (inactive),13.8 µM (inactive),> 100 µM (inactive),> 100 µM (inactive),> 100 µM (inactive),> 100 µM (inactive),> 100 µM (inactive),> 100 µM (inactive),> 100 µM (inactive)
COc1cc(C2S/C(=C/c3ccccc3)C(=O)N2c2ccc(Cl)cc2)cc(OC)c1OC (stereo not drawn),53.8 µM (inactive),24.4 µM (inactive),0.178 µM (active),7.43 µM (inactive),0.617 µM (active),3.65 µM (inactive),14.2 µM (inactive),13.5 µM (inactive),,2 µM (inactive),> 43.9 µM (inactive),> 89.1 µM (inactive),26.4 µM (inactive),> 46.6 µM (inactive),16.4 µM (inactive),12.9 µM (inactive),37.7 µM (inactive),34.2 µM (inactive),,> 20.1 µM (inactive)
NC(=O)NNC(=O)c1nc[nH]c1[N+](=O)[O-],> 100 µM (inactive),> 100 µM (inactive),,> 100 µM (inactive),> 100 µM (inactive),> 100 µM (inactive),> 100 µM (inactive),> 100 µM (inactive),> 100 µM (inactive),> 100 µM (inactive),> 100 µM (inactive),> 100 µM (inactive),> 100 µM (inactive),> 100 µM (inactive),> 100 µM (inactive),> 100 µM (inactive),> 100 µM (inactive),> 100 µM (inactive),> 100 µM (inactive),> 100 µM (inactive)
O=C1C(Cl)=C(NCCCN2CCOCC2)C(=O)c2c(O)ccc(O)c21,10 µM (inactive),3.9 µM (inactive),9.18 µM (inactive),1.64 µM (inactive),,1.59 µM (inactive),1.96 µM (inactive),1.9 µM (inactive),2.62 µM (inactive),1.96 µM (inactive),3.01 µM (inactive),3.54 µM (inactive),1.61 µM (inactive),2.96 µM (inactive),2.38 µM (inactive),1.95 µM (inactive),2.19 µM (inactive),2.35 µM (inactive),1.64 µM (inactive),7.89 µM (inactive)
COc1ccccc1/C=C/c1nc2ccccc2o1,> 10 µM (inactive),> 10 µM (inactive),> 10 µM (inactive),> 10 µM (inactive),> 10 µM (inactive),> 10 µM (inactive),> 10 µM (inactive),> 10 µM (inactive),> 10 µM (inactive),> 10 µM (inactive),> 10 µM (inactive),> 10 µM (inactive),> 10 µM (inactive),> 10 µM (inactive),> 10 µM (inactive),> 10 µM (inactive),> 10 µM (inactive),> 10 µM (inactive),,> 10 µM (inactive)
O=C(O)C1CCCN(CCc2c[nH]c3ccccc23)C1 (stereo not drawn),> 100 µM (inactive),> 100 µM (inactive),> 100 µM (inactive),> 100 µM (inactive),> 100 µM (inactive),> 100 µM (inactive),> 100 µM (inactive),> 100 µM (inactive),> 100 µM (inactive),> 100 µM (inactive),> 100 µM (inactive),> 100 µM (inactive),> 100 µM (inactive),> 100 µM (inactive),> 100 µM (inactive),> 100 µM (inactive),> 100 µM (inactive),> 100 µM (inactive),,> 100 µM (inactive)
COc1cc2cc(C(=O)N3CC(CCl)c4c3cc([N+](C)(C)Cc3ccc([N+](=O)[O-])n3C)c3ccccc43)[nH]c2c(OC)c1OC (stereo not drawn),0.153 µM (active),0.074 µM (active),0.381 µM (active),2.51 µM (inactive),0.989 µM (active),1.48 µM (inactive),4.02 µM (inactive),1.58 µM (inactive),,3.61 µM (inactive),2.42 µM (inactive),1.87 µM (inactive),4.06 µM (inactive),0.184 µM (active),2.35 µM (inactive),1.69 µM (inactive),2.33 µM (inactive),2.06 µM (inactive),1.17 µM (inactive),3.81 µM (inactive)
O=C(O)C(O)C(O)C(O)C(O)c1nc2ccccc2s1 (stereo not drawn),24.6 µM (inactive),18.2 µM (inactive),17.7 µM (inactive),26.3 µM (inactive),34.8 µM (inactive),16.1 µM (inactive),18.3 µM (inactive),10.9 µM (inactive),,17.8 µM (inactive),16.6 µM (inactive),29.8 µM (inactive),17.5 µM (inactive),15.3 µM (inactive),16.9 µM (inactive),22.3 µM (inactive),15.7 µM (inactive),15.8 µM (inactive),15.9 µM (inactive),19.1 µM (inactive)
CNc1cccc(-c2cc(O)c3cc4c(cc3n2)OCO4)c1,0.307 µM (active),0.664 µM (active),0.883 µM (active),0.394 µM (active),0.167 µM (active),0.236 µM (active),0.409 µM (active),0.437 µM (active),0.201 µM (active),0.224 µM (active),0.407 µM (active),0.404 µM (active),0.126 µM (active),0.254 µM (active),1.8 µM (inactive),0.283 µM (active),0.267 µM (active),,0.509 µM (active),0.256 µM (active)
